Test [1] relates to endogenous ING2. In words: capture of endogenous ING2 from Hela cell lysates. The note with it: probe 1 (2 μM), UV, biotin-N3, streptavidin, Western blot, in words. On the technique in general: A western blot detects proteins with antibodies after separation by electrophoresis.
Test [2] relates to PHD finger of BPTF. In words: labeling of recombinant BPTF PHD finger by probe 1 and competition by peptides. The conditions noted are these: probe 1 (1 μM), protein 100 ng; in words. Format: biochemical.
The test system of test [3] is GST-ING2PHD. Format: biochemical. The note with it: probe 1 (1 μM); GST-ING2PHD 10 μg/mL, 280 nM; Hela cell lysates 2 mg/mL; in words.
Test [4] relates to double tudor domain of JMJD2A. Format: biochemical. The conditions noted are these: probe 1 (1 μM), protein 100 ng; in words.
Test [5] addresses T1, GST-fused PHD finger of ING2 (GST-ING2PHD) (Homo sapiens, UniProt Q9H160).
T1 sequence (Q9H160 212-261 limits assumed): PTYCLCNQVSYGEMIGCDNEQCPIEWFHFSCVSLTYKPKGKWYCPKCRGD
In words: UV photocrosslinking labeling of recombinant GST-ING2PHD by probe 1. Format: biochemical. The note with it: UV irradiation 1 h, coupled to rhodamine azide; in words.

“probe 1: H3K4me3 peptide probe; benzophenone moiety replaced the side chain of Ala 7; spacer (H3 residues 8–15) and an alkyne (ARTKQT; not fully specified; trimethyl-lysine at 4 (K(me3)); benzophenone moiety in place of the side chain of Ala 7; an alkyne group)”: the “capture of endogenous ING2” value in test [1] is on record as “endogenous ING2 was captured by the probe”. Moreover, the “labeling of recombinant protein” value in test [2] and in test [4] was “robust labeling” throughout. Further, in test [3], the “labeling of GST-ING2PHD in cell lysates” value was “robustly labeled”. In test [5], the “labeling of the recombinant protein” value is “successfully labeled the recombinant protein in a dose-dependent manner”.

These data come from PMC2895771 (Journal of the American Chemical Society, 2010).
